Reference: the supplement of paper PMC10733146

Legend:
Assay in all cases: viability relative to DMSO control (fraction); higher = less drug effect (more viable cells)
Settings in all cases: 48 h
Vindesine = compound: CC[C@]1(O)C[C@@H]2CN(CCc3c([nH]c4ccccc34)[C@@](C(=O)OC)(c3cc4c(cc3OC)N(C)[C@H]3[C@@](O)(C(N)=O)[C@H](O)[C@]5(CC)C=CCN6CC[C@]43[C@@H]65)C2)C1 [Vindesine]
Procedure, shortened: (§1)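 Compounds were pre-plated at five concentrations, one well each, in 384-well plates, and primary mononuclear tumour cells were plated on them at 4 × 10^4 cells per well. The cells, fresh or cryopreserved, had been Ficoll-isolated from blood or bone marrow or taken from processed lymph node. After 48 h at 37 °C and 5% CO2 in RPMI-1640 with penicillin/streptomycin, L-glutamine and human serum, viability was read as CellTiter-Glo luminescence relative to the median of 16 inner DMSO wells.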

Entospletinib = compound: c1cn2cc(-c3ccc4cn[nH]c4c3)nc(Nc3ccc(N4CCOCC4)cc3)c2n1 [Entospletinib]
Procedure, shortened: as §1

CPI-169 = compound: CCS(=O)(=O)N1CCC([C@@H](C)n2c(C)c(C(=O)NCc3c(OC)cc(C)[nH]c3=O)c3ccccc32)CC1 [CPI-169]
Procedure, shortened: as §1

Venetoclax = compound: CC1(C)CCC(CN2CCN(c3ccc(C(=O)NS(=O)(=O)c4ccc(NCC5CCOCC5)c([N+](=O)[O-])c4)c(Oc4cnc5[nH]ccc5c4)c3)CC2)=C(c2ccc(Cl)cc2)C1 [Venetoclax]
Procedure, shortened: as §1

[1] = compound: O=C(NO)c1cccc(C(=O)NCCc2ccccc2)c1
Procedure, shortened: as §1

[2] = compound: O=C(Nc1ccc2[nH]nc(-c3ccncc3)c2c1)[C@@H]1CCN(CC(=O)N2CCN(c3ccc(-c4ncccn4)cc3)CC2)C1
Procedure, shortened: as §1

[3] = compound: C[C@H]1C[C@@H](n2c(Nc3ccc(OC(F)(F)F)cc3)nc3cc(CCC(=O)O)ccc32)CC(C)(C)C1
Procedure, shortened: as §1

I-BET-762 = compound: CCNC(=O)C[C@@H]1N=C(c2ccc(Cl)cc2)c2cc(OC)ccc2-n2c(C)nnc21 [I-BET-762]
Procedure, shortened: as §1

Thalidomide = compound: O=C1CCC(N2C(=O)c3ccccc3C2=O)C(=O)N1 [Thalidomide]
Procedure, shortened: as §1

Roscovitine = compound: CC[C@H](CO)Nc1nc(NCc2ccccc2)c2ncn(C(C)C)c2n1 [Roscovitine]
Procedure, shortened: as §1

Everolimus = compound: CO[C@H]1C[C@@H]2CC[C@@H](C)[C@@](O)(O2)C(=O)C(=O)N2CCCC[C@H]2C(=O)O[C@H]([C@H](C)C[C@@H]2CC[C@@H](OCCO)[C@H](OC)C2)CC(=O)[C@H](C)/C=C(\C)[C@@H](O)[C@@H](OC)C(=O)[C@H](C)C[C@H](C)/C=C/C=C/C=C/1C [Everolimus]
Procedure, shortened: as §1

Idasanutlin (RS7388) = compound: COc1cc(C(=O)O)ccc1NC(=O)[C@@H]1N[C@@H](CC(C)(C)C)[C@](C#N)(c2ccc(Cl)cc2F)[C@H]1c1cccc(Cl)c1F [Idasanutlin (RS7388)]
Procedure, shortened: as §1

Bendamustine = compound: Cn1c(CCCC(=O)O)nc2cc(N(CCCl)CCCl)ccc21 [Bendamustine]
Procedure, shortened: as §1

primary AML patient cells (S072)
viability (Vindesine; 0.016 µM): 1.08
viability (Vindesine; 0.08 µM): 0.943
viability (Vindesine; 0.4 µM): 0.892
viability (Vindesine; 2 µM): 0.776
viability (Vindesine; 10 µM): 0.648
viability (Entospletinib; 0.024 µM): 1.02
viability (Entospletinib; 0.12 µM): 0.935
viability (Entospletinib; 0.6 µM): 0.986
viability (Entospletinib; 3 µM): 0.995
viability (Entospletinib; 15 µM): 0.917
viability (CPI-169; 0.024 µM): 0.941
viability (CPI-169; 0.12 µM): 0.897
viability (CPI-169; 0.6 µM): 0.953
viability (CPI-169; 3 µM): 0.89
viability (CPI-169; 15 µM): 0.88
viability (Venetoclax; 0.00064 µM): 1.02
viability (Venetoclax; 0.0032 µM): 0.901
viability (Venetoclax; 0.016 µM): 0.832
viability (Venetoclax; 0.08 µM): 0.739
viability (Venetoclax; 0.4 µM): 0.659
viability ([1]; 0.024 µM): 0.933
viability ([1]; 0.12 µM): 0.967
viability ([1]; 0.6 µM): 0.974
viability ([1]; 3 µM): 0.958
viability ([1]; 15 µM): 0.89
viability ([2]; 0.008 µM): 0.924
viability ([2]; 0.04 µM): 0.878
viability ([2]; 0.2 µM): 0.808
viability ([2]; 1 µM): 0.716
viability ([2]; 5 µM): 0.569
viability ([3]; 0.024 µM): 0.873
viability ([3]; 0.12 µM): 0.965
viability ([3]; 0.6 µM): 0.97
viability ([3]; 3 µM): 0.82
viability ([3]; 15 µM): 1.06
viability (I-BET-762; 0.008 µM): 0.946
viability (I-BET-762; 0.04 µM): 0.889
viability (I-BET-762; 0.2 µM): 0.787
viability (I-BET-762; 1 µM): 0.537
viability (I-BET-762; 5 µM): 0.393
viability (Thalidomide; 0.032 µM): 1.02
viability (Thalidomide; 0.16 µM): 0.953
viability (Thalidomide; 0.8 µM): 1.02
viability (Thalidomide; 4 µM): 1
viability (Thalidomide; 20 µM): 1.09
viability (Roscovitine; 0.032 µM): 0.93
viability (Roscovitine; 0.16 µM): 0.85
viability (Roscovitine; 0.8 µM): 0.874
viability (Roscovitine; 4 µM): 0.82
viability (Roscovitine; 20 µM): 0.483
viability (Everolimus; 0.0032 µM): 0.785
viability (Everolimus; 0.016 µM): 0.744
viability (Everolimus; 0.08 µM): 0.789
viability (Everolimus; 0.4 µM): 0.758
viability (Everolimus; 2 µM): 0.775
viability (Idasanutlin (RS7388); 0.032 µM): 0.77
viability (Idasanutlin (RS7388); 0.16 µM): 0.89
viability (Idasanutlin (RS7388); 0.8 µM): 0.846
viability (Idasanutlin (RS7388); 4 µM): 0.695
viability (Idasanutlin (RS7388); 20 µM): 0.763
viability (Bendamustine; 0.032 µM): 0.999
viability (Bendamustine; 0.16 µM): 1.03
viability (Bendamustine; 0.8 µM): 1.02
viability (Bendamustine; 4 µM): 1.01
viability (Bendamustine; 20 µM): 0.839

primary FL patient cells (S022)
viability (Vindesine; 0.016 µM): 0.568
viability (Vindesine; 0.08 µM): 0.451
viability (Vindesine; 0.4 µM): 0.373
viability (Vindesine; 2 µM): 0.348
viability (Vindesine; 10 µM): 0.214
viability (Entospletinib; 0.024 µM): 1.01
viability (Entospletinib; 0.12 µM): 1.05
viability (Entospletinib; 0.6 µM): 1.07
viability (Entospletinib; 3 µM): 0.933
viability (Entospletinib; 15 µM): 0.964
viability (CPI-169; 0.024 µM): 1.07
viability (CPI-169; 0.12 µM): 0.933
viability (CPI-169; 0.6 µM): 1.14
viability (CPI-169; 3 µM): 0.97
viability (CPI-169; 15 µM): 0.953
viability (Venetoclax; 0.00064 µM): 1.01
viability (Venetoclax; 0.0032 µM): 0.894
viability (Venetoclax; 0.016 µM): 0.67
viability (Venetoclax; 0.08 µM): 0.313
viability (Venetoclax; 0.4 µM): 0.066
viability ([1]; 0.024 µM): 1.07
viability ([1]; 0.12 µM): 0.992
viability ([1]; 0.6 µM): 1.07
viability ([1]; 3 µM): 0.961
viability ([1]; 15 µM): 0.984
viability ([2]; 0.008 µM): 0.888
viability ([2]; 0.04 µM): 0.929
viability ([2]; 0.2 µM): 0.895
viability ([2]; 1 µM): 0.911
viability ([2]; 5 µM): 0.96
viability ([3]; 0.024 µM): 0.869
viability ([3]; 0.12 µM): 0.929
viability ([3]; 0.6 µM): 1
viability ([3]; 3 µM): 0.873
viability ([3]; 15 µM): 1.03
viability (I-BET-762; 0.008 µM): 0.986
viability (I-BET-762; 0.04 µM): 0.967
viability (I-BET-762; 0.2 µM): 0.945
viability (I-BET-762; 1 µM): 0.894
viability (I-BET-762; 5 µM): 0.882
viability (Thalidomide; 0.032 µM): 0.988
viability (Thalidomide; 0.16 µM): 1.09
viability (Thalidomide; 0.8 µM): 0.952
viability (Thalidomide; 4 µM): 0.921
viability (Thalidomide; 20 µM): 0.961
viability (Roscovitine; 0.032 µM): 1.03
viability (Roscovitine; 0.16 µM): 1.03
viability (Roscovitine; 0.8 µM): 1.05
viability (Roscovitine; 4 µM): 0.992
viability (Roscovitine; 20 µM): 0.781
viability (Everolimus; 0.0032 µM): 0.943
viability (Everolimus; 0.016 µM): 0.933
viability (Everolimus; 0.08 µM): 0.911
viability (Everolimus; 0.4 µM): 0.882
viability (Everolimus; 2 µM): 0.966
viability (Idasanutlin (RS7388); 0.032 µM): 0.837
viability (Idasanutlin (RS7388); 0.16 µM): 0.831
viability (Idasanutlin (RS7388); 0.8 µM): 0.772
viability (Idasanutlin (RS7388); 4 µM): 0.608
viability (Idasanutlin (RS7388); 20 µM): 0.579
viability (Bendamustine; 0.032 µM): 1.13
viability (Bendamustine; 0.16 µM): 1.1
viability (Bendamustine; 0.8 µM): 1.19
viability (Bendamustine; 4 µM): 1.14
viability (Bendamustine; 20 µM): 0.888

primary AML patient cells (S056)
viability (Vindesine; 0.016 µM): 0.915
viability (Vindesine; 0.08 µM): 0.467
viability (Vindesine; 0.4 µM): 0.242
viability (Vindesine; 2 µM): 0.206
viability (Vindesine; 10 µM): 0.177
viability (Entospletinib; 0.024 µM): 1.05
viability (Entospletinib; 0.12 µM): 0.788
viability (Entospletinib; 0.6 µM): 0.981
viability (Entospletinib; 3 µM): 0.99
viability (Entospletinib; 15 µM): 0.979
viability (CPI-169; 0.024 µM): 0.887
viability (CPI-169; 0.12 µM): 0.869
viability (CPI-169; 0.6 µM): 0.733
viability (CPI-169; 3 µM): 0.787
viability (CPI-169; 15 µM): 1.05
viability (Venetoclax; 0.00064 µM): 0.907
viability (Venetoclax; 0.0032 µM): 0.445
viability (Venetoclax; 0.016 µM): 0.29
viability (Venetoclax; 0.08 µM): 0.269
viability (Venetoclax; 0.4 µM): 0.0674
viability ([1]; 0.024 µM): 1.1
viability ([1]; 0.12 µM): 1.17
viability ([1]; 0.6 µM): 0.856
viability ([1]; 3 µM): 0.894
viability ([1]; 15 µM): 0.596
viability ([2]; 0.008 µM): 0.673
viability ([2]; 0.04 µM): 0.609
viability ([2]; 0.2 µM): 0.527
viability ([2]; 1 µM): 0.455
viability ([2]; 5 µM): 0.337
viability ([3]; 0.024 µM): 0.631
viability ([3]; 0.12 µM): 0.802
viability ([3]; 0.6 µM): 0.722
viability ([3]; 3 µM): 0.722
viability ([3]; 15 µM): 0.702
viability (I-BET-762; 0.008 µM): 0.739
viability (I-BET-762; 0.04 µM): 0.991
viability (I-BET-762; 0.2 µM): 0.927
viability (I-BET-762; 1 µM): 0.461
viability (I-BET-762; 5 µM): 0.201
viability (Thalidomide; 0.032 µM): 0.911
viability (Thalidomide; 0.16 µM): 0.998
viability (Thalidomide; 0.8 µM): 0.991
viability (Thalidomide; 4 µM): 0.809
viability (Thalidomide; 20 µM): 0.693
viability (Roscovitine; 0.032 µM): 0.781
viability (Roscovitine; 0.16 µM): 0.741
viability (Roscovitine; 0.8 µM): 0.743
viability (Roscovitine; 4 µM): 0.627
viability (Roscovitine; 20 µM): 0.302
viability (Everolimus; 0.0032 µM): 0.965
viability (Everolimus; 0.016 µM): 0.92
viability (Everolimus; 0.08 µM): 0.901
viability (Everolimus; 0.4 µM): 0.62
viability (Everolimus; 2 µM): 0.812
viability (Idasanutlin (RS7388); 0.032 µM): 0.574
viability (Idasanutlin (RS7388); 0.16 µM): 0.333
viability (Idasanutlin (RS7388); 0.8 µM): 0.147
viability (Idasanutlin (RS7388); 4 µM): 0.0924
viability (Idasanutlin (RS7388); 20 µM): 0.0823
viability (Bendamustine; 0.032 µM): 1.02
viability (Bendamustine; 0.16 µM): 0.816
viability (Bendamustine; 0.8 µM): 1.06
viability (Bendamustine; 4 µM): 0.779
viability (Bendamustine; 20 µM): 0.878
